According to patent US20260098061A1, “EPHA2-BINDING PENDING PEPTIDE AND COMPOSITION COMPRISING SAME” (PeptiDream Inc., priority 2022, published 2026):
Numbered stars: 1 amine (or outer) side, 2 acyl side, 3 side chain; on linkers, the order of the positions; unused ones are H or OH. Bridge positions count the residues as written; N and C are the ends. Square brackets hold non-standard residues; d marks the D form. Side chains are listed from the residue outwards. Peptide text beside a SMILES is read from it. * marks the point of attachment. NH(1-deoxy-D-glucityl) = OC[C@@H](O)[C@@H](O)[C@H](O)[C@@H](O)CN*; Trp(1-Me,7-Cl) = Cn1cc(C[C@H](N)C(=O)O)c2cccc(Cl)c21; Ala(2-NH2-4-pyridyl) = Nc1cc(C[C@H](N)C(=O)O)ccn1; dPhe(3-CONH2) = NC(=O)c1cccc(C[C@@H](N)C(=O)O)c1; NMePhe(4-Cl) = CN[C@@H](Cc1ccc(Cl)cc1)C(=O)O; Piperazinyl(4-CH2COOH) = O=C(O)CN1CCN(*)CC1; Trp(1-Me) = Cn1cc(C[C@H](N)C(=O)O)c2ccccc21; NMe3Pal = CN[C@@H](Cc1cccnc1)C(=O)O; NMeF = CN[C@@H](Cc1ccccc1)C(=O)O; hArg = N=C(N)NCCCC[C@H](N)C(=O)O; hCit = NC(=O)NCCCC[C@H](N)C(=O)O; Gly(cBu) = N[C@H](C(=O)O)C1CCC1; NMeE = CN[C@@H](CCC(=O)O)C(=O)O; Aad = N[C@@H](CCCC(=O)O)C(=O)O; NMeN = CN[C@@H](CC(N)=O)C(=O)O; CO = O=C([*:1])[*:2]; βAla = NCCC(=O)O

Biological target: T1, Recombinant Human EphA2 Fc Protein (Homo sapiens, UniProt P29317)
T1 construct: purchased Elabscience
Assay: SPR interaction analysis (Biacore T200), kinetics of peptides against EphA2
Type: binding
Details: Recombinant Human EphA2 Fc Protein captured by Human Antibody Capture kit; single-cycle kinetics; 25° C.; HBS-P+ buffer with 1% DMSO
In short: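 KD derived from ka and kd, fitted on baseline-subtracted sensorgrams from single-cycle kinetics of five peptide dilutions. Running buffer: HBS-P+ (pH 7.4) plus 1% DMSO, 25° C, Biacore T200. Recombinant human EphA2-Fc held on an antibody capture surface.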

SMILES | Kd [nM]
CNC(=O)C[C@@H]1NC(=O)[C@H]([C@@H](C)O)NC(=O)[C@H](Cc2cn(C)c3ccccc23)NC(=O)[C@H](CCCCNC(=O)N2CCN(CC(=O)O)CC2)NC(=O)[C@H](Cc2cn(C)c3ccccc23)NC(=O)[C@H](CCC(=O)O)N(C)C(=O)[C@H](CCCC(N)=O)NC(=O)[C@H](CC(C)C)NC(=O)[C@H](CC(N)=O)NC(=O)[C@H](Cc2cccnc2)N(C)C(=O)[C@@H](C)NC(=O)CSC[C@@H](C(N)=O)NC1=O [PDC_EphA2-00018533, da-Me3Py-N-L-Hgn-MeE-W1Me-KCOpipzaa-W1Me-T-Nmm-C-NH2] ({CH2CO}-[dA][NMe3Pal]NL[Aad](NH2)[NMeE][Trp(1-Me)]K([CO-Piperazinyl(4-CH2COOH)])[Trp(1-Me)]TD(NHMe)C-NH2; thioether N-12) | < 1
CC(C)[C@@H]1NC(=O)[C@H](Cc2cn(C)c3c(Cl)cccc23)NC(=O)[C@H](CC(N)=O)N(C)C(=O)[C@H](CCCC(N)=O)NC(=O)[C@H](C2CCC2)NC(=O)[C@H](CC(N)=O)NC(=O)[C@H](Cc2cccnc2)N(C)C(=O)[C@@H](Cc2cccc(C(N)=O)c2)NC(=O)CSC[C@@H](C(N)=O)NC(=O)[C@H](CCCC(N)=O)NC(=O)[C@H]([C@@H](C)O)NC(=O)[C@H](Cc2cn(C)c3ccccc23)NC1=O [PDC_EphA2-00019424, df3CON-Me3Py-N-Cbg-Hgn-MeN-W1Me7Cl-V-W1Me-T-Hgn-C-NH2] ({CH2CO}-[dPhe(3-CONH2)][NMe3Pal]N[Gly(cBu)][Aad](NH2)[NMeN][Trp(1-Me,7-Cl)]V[Trp(1-Me)]T[Aad](NH2)C-NH2; thioether N-12) | < 1
CC(C)[C@@H]1NC(=O)[C@H](Cc2cn(C)c3c(Cl)cccc23)NC(=O)[C@H](CC(N)=O)N(C)C(=O)[C@H](CCCC(N)=O)NC(=O)[C@H](C2CCC2)NC(=O)[C@H](CC(N)=O)NC(=O)[C@H](Cc2ccccc2)N(C)C(=O)[C@@H](Cc2cccc(C(N)=O)c2)NC(=O)CSC[C@@H](C(N)=O)NC(=O)[C@H](CCCC(N)=O)NC(=O)[C@H]([C@@H](C)O)NC(=O)[C@H](Cc2cn(C)c3ccccc23)NC1=O [PDC_EphA2-00019421, df3CON-MeF-N-Cbg-Hgn-MeN-W1Me7Cl-V-W1Me-T-Hgn-C-NH2] ({CH2CO}-[dPhe(3-CONH2)][NMeF]N[Gly(cBu)][Aad](NH2)[NMeN][Trp(1-Me,7-Cl)]V[Trp(1-Me)]T[Aad](NH2)C-NH2; thioether N-12) | < 1
C[C@H]1NC(=O)CSC[C@@H](C(N)=O)NC(=O)[C@H](CCCC(N)=O)NC(=O)[C@H]([C@@H](C)O)NC(=O)[C@H](Cc2cn(C)c3ccccc23)NC(=O)[C@H](CCC(=O)NC[C@H](O)[C@@H](O)[C@H](O)[C@H](O)CO)NC(=O)[C@H](Cc2cn(C)c3ccccc23)NC(=O)[C@H](Cc2ccccc2)N(C)C(=O)[C@H](CCCC(N)=O)NC(=O)[C@H](C2CCC2)NC(=O)[C@H](CC(N)=O)NC(=O)[C@H](Cc2ccccc2)N(C)C1=O [PDC_EphA2-00013917, da-MeF-N-Cbg-Hgn-MeF-W1Me-QGlucamine-W1Me-T-Hgn-C-NH2] ({CH2CO}-[dA][NMeF]N[Gly(cBu)][Aad](NH2)[NMeF][Trp(1-Me)]E(NH(1-deoxy-D-glucityl))[Trp(1-Me)]T[Aad](NH2)C-NH2; thioether N-12) | < 1
CC(C)C[C@@H]1NC(=O)[C@H](Cc2ccnc(N)c2)NC(=O)[C@H](Cc2ccccc2)NC(=O)CSC[C@@H](C(N)=O)NC(=O)[C@H](Cc2cn(C)c3ccccc23)NC(=O)[C@H](Cc2ccccc2)N(C)C(=O)[C@H](Cc2cn(C)c3ccccc23)NC(=O)[C@H](CCCCNC(N)=O)NC1=O [PDC_EphA2-00020708, F-4Py2NH2-L-Hcit-W1Me-MeF-W1Me-C-NH2] ({CH2CO}-F[Ala(2-NH2-4-pyridyl)]L[hCit][Trp(1-Me)][NMeF][Trp(1-Me)]C-NH2; thioether N-8) | 100 to 400
CC(C)C[C@@H]1NC(=O)[C@H](CC(N)=O)NC(=O)[C@H](Cc2cccnc2)N(C)C(=O)[C@@H](C)NC(=O)CSC[C@@H](C(N)=O)NC(=O)[C@H](CCCC(N)=O)NC(=O)[C@H]([C@@H](C)O)NC(=O)[C@H](Cc2cn(C)c3ccccc23)NC(=O)[C@H](CCCCNC(=O)N2CCN(CC(=O)O)CC2)NC(=O)[C@H](Cc2cn(C)c3ccccc23)NC(=O)[C@H](Cc2ccc(Cl)cc2)N(C)C(=O)[C@H](CCCC(=O)O)NC1=O [PDC_EphA2-00018527, da-Me3Py-N-L-Hgl-MeF4C-W1Me-KCOpipzaa-W1Me-T-Hgn-C-NH2] ({CH2CO}-[dA][NMe3Pal]NL[Aad][NMePhe(4-Cl)][Trp(1-Me)]K([CO-Piperazinyl(4-CH2COOH)])[Trp(1-Me)]T[Aad](NH2)C-NH2; thioether N-12) | < 1

Second part, the molecule after the results:

Kd [nM] | SMILES
< 1 | C[C@@H](O)[C@@H]1NC(=O)[C@H](Cc2cn(C)c3ccccc23)NC(=O)[C@H](CCCCNC(N)=O)NC(=O)[C@H](Cc2cn(C)c3c(Cl)cccc23)NC(=O)[C@H](CCC(=O)O)N(C)C(=O)[C@H](CCCC(N)=O)NC(=O)[C@H](C2CCC2)NC(=O)[C@H](CC(N)=O)NC(=O)[C@H](Cc2ccccc2)N(C)C(=O)[C@@H](Cc2cccc(C(N)=O)c2)NC(=O)CSC[C@@H](C(N)=O)NC(=O)[C@H](CCCCNC(=N)N)NC1=O [PDC_EphA2-00019426, df3CON-MeF-N-Cbg-Hgn-MeN-W1Me7Cl-Hcit-W1Me-T-Hgn-C-NH2] ({CH2CO}-[dPhe(3-CONH2)][NMeF]N[Gly(cBu)][Aad](NH2)[NMeE][Trp(1-Me,7-Cl)][hCit][Trp(1-Me)]T[hArg]C-NH2; thioether N-12)
< 1 | C[C@@H](O)[C@@H]1NC(=O)[C@H](Cc2cn(C)c3ccccc23)NC(=O)[C@H](CCCCNC(=O)N2CCN(CC(=O)O)CC2)NC(=O)[C@H](Cc2cn(C)c3c(Cl)cccc23)NC(=O)[C@H](CC(N)=O)N(C)C(=O)[C@H](CCCC(N)=O)NC(=O)[C@H](C2CCC2)NC(=O)[C@H](CC(N)=O)NC(=O)[C@H](Cc2cccnc2)N(C)C(=O)[C@@H](Cc2cccc(C(N)=O)c2)NC(=O)CSC[C@@H](C(N)=O)NC(=O)[C@H](CCCCNC(=N)N)NC1=O [PDC_EphA2-00019430, df3CON-Me3Py-N-Cbg-Hgn-MeN-W1Me7Cl-KCOpipzaa-W1Me-T-Har-C-NH2] ({CH2CO}-[dPhe(3-CONH2)][NMe3Pal]N[Gly(cBu)][Aad](NH2)[NMeN][Trp(1-Me,7-Cl)]K([CO-Piperazinyl(4-CH2COOH)])[Trp(1-Me)]T[hArg]C-NH2; thioether N-12)
< 1 | CC(C)C[C@@H]1NC(=O)[C@H](CC(N)=O)NC(=O)[C@H](Cc2ccccc2)N(C)C(=O)[C@@H](Cc2cccc(C(N)=O)c2)NC(=O)CSC[C@@H](C(N)=O)NC(=O)[C@H](CCCC(N)=O)NC(=O)[C@H]([C@@H](C)O)NC(=O)[C@H](Cc2cn(C)c3ccccc23)NC(=O)[C@H](C(C)C)NC(=O)[C@H](Cc2cn(C)c3ccccc23)NC(=O)[C@H](CC(N)=O)N(C)C(=O)[C@H](CCCC(N)=O)NC1=O [PDC_EphA2-00019423, df3CON-MeF-N-L-Hgn-MeN-W1Me-V-W1Me-T-Hgn-C-NH2] ({CH2CO}-[dPhe(3-CONH2)][NMeF]NL[Aad](NH2)[NMeN][Trp(1-Me)]V[Trp(1-Me)]T[Aad](NH2)C-NH2; thioether N-12)
< 1 | C[C@@H](O)[C@@H]1NC(=O)[C@H](Cc2cn(C)c3ccccc23)NC(=O)[C@H](CCCCNC(=O)N2CCN(CC(=O)O)CC2)NC(=O)[C@H](Cc2cn(C)c3c(Cl)cccc23)NC(=O)[C@H](Cc2ccccc2)N(C)C(=O)[C@H](CCCCNC(=O)N2CCN(CC(=O)O)CC2)NC(=O)[C@H](C2CCC2)NC(=O)[C@H](CC(N)=O)NC(=O)[C@H](Cc2cccnc2)N(C)C(=O)[C@@H](Cc2cccc(C(N)=O)c2)NC(=O)CSC[C@@H](C(N)=O)NC(=O)[C@H](CCCC(N)=O)NC1=O [PDC_EphA2-00019441, df3CON-Me3Py-A-Cbg-KCOpipzaa-MeF-W1Me7Cl-KCOpipzaa-W1Me-T-Hgn-C-NH2] ({CH2CO}-[dPhe(3-CONH2)][NMe3Pal]N[Gly(cBu)]K([CO-Piperazinyl(4-CH2COOH)])[NMeF][Trp(1-Me,7-Cl)]K([CO-Piperazinyl(4-CH2COOH)])[Trp(1-Me)]T[Aad](NH2)C-NH2; thioether N-12)
< 1 | CC(=O)NCCCC[C@@H](NC(=O)CCNC(=O)[C@@H]1CSCC(=O)N[C@H](C)C(=O)N(C)[C@@H](Cc2cccnc2)C(=O)N[C@@H](CC(N)=O)C(=O)N[C@@H](CC(C)C)C(=O)N[C@@H](CCCC(N)=O)C(=O)N(C)[C@@H](Cc2ccccc2)C(=O)N[C@@H](Cc2cn(C)c3ccccc23)C(=O)N[C@@H](CCCCNC(=O)N2CCN(CC(=O)O)CC2)C(=O)N[C@@H](Cc2cn(C)c3ccccc23)C(=O)N[C@@H]([C@@H](C)O)C(=O)N[C@@H](CCCC(N)=O)C(=O)N1)C(N)=O [PDC_EphA2-00008093, da-Me3Py-N-L-Hgn-MeF-W1Me-KCOpipzaa-W1Me-T-Hgn-C-bA-dkAc-NH2] ({CH2CO}-[dA][NMe3Pal]NL[Aad](NH2)[NMeF][Trp(1-Me)]K([CO-Piperazinyl(4-CH2COOH)])[Trp(1-Me)]T[Aad](NH2)C[βAla][dK](Ac)-NH2; thioether N-12)
< 1 | CC(C)C[C@@H]1NC(=O)[C@H](CC(N)=O)NC(=O)[C@H](Cc2cccnc2)N(C)C(=O)[C@@H](Cc2cccc(C(N)=O)c2)NC(=O)CSC[C@@H](C(N)=O)NC(=O)[C@H](CC(N)=O)NC(=O)[C@H]([C@@H](C)O)NC(=O)[C@H](Cc2cn(C)c3ccccc23)NC(=O)[C@H](CCC(=O)NC[C@H](O)[C@@H](O)[C@H](O)[C@H](O)CO)NC(=O)[C@H](Cc2cn(C)c3c(Cl)cccc23)NC(=O)[C@H](CC(N)=O)N(C)C(=O)[C@H](CC(N)=O)NC1=O [PDC_EphA2-00026425, df3CON-Me3Py-N-L-N-MeN-W1Me7Cl-Qglucamine-W1Me-T-N-C-NH2] ({CH2CO}-[dPhe(3-CONH2)][NMe3Pal]NLN[NMeN][Trp(1-Me,7-Cl)]E(NH(1-deoxy-D-glucityl))[Trp(1-Me)]TNC-NH2; thioether N-12)
